Experimental data reported in patent US10994015B2, “EGFR proteolysis targeting chimeric molecules and associated methods of use” (Arvinas Operations, Inc., priority 2016, dated 2021).

Experiments:
[1] = biological target: EGFR-wt (MDA-MB-231 or MCF7 or A549 or OVCAR8) (Homo sapiens (Human), UniProt P00533); assay: EGFR protein degradation assay (Western blot); type: cell-based; details: 72 hours, 300 nM to 10 nM
Method in brief: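 Cells carrying the relevant EGFR form were plated at 300,000 per well in 6-well plates and left overnight to attach. For harvest, cells were rinsed once in ice-cold PBS and lysed in 400 μl lysis buffer containing protease inhibitors. Lysates were cleared at 10 000 rpm for 10 minutes and their protein content measured by BCA. Then 10 μg per sample was separated by SDS/PAGE at 165V for 2 hours, and EGFR was detected by ECL on a Chemidoc.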

EGFR Exon 20 ASV (HeLa*) = EGFR Exon 20 ASV (HeLa*) (Homo sapiens (Human), UniProt P00533, DUP767-769); assay: EGFR protein degradation assay (Western blot); type: cell-based; details: 72 hours, 300 nM to 10 nM
EGFR L858R/T790M = EGFR L858R/T790M (Homo sapiens (Human), UniProt P00533, L858R/T790M); assay: TR-FRET assay for ERBB kinases; type: biochemical; details: geometric mean if measured more than once
Method in brief: (§1)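 Read-out is TR-FRET between a terbium anti-phosphotyrosine (pY20) antibody and phosphorylated fluorescein-labelled poly-GluTyr, excited at 340 nm with donor 490 nm and acceptor 520 nm emission. Phosphorylation ran 10 min at room temperature after a 10 min compound–enzyme pre-incubation. The substrate mix contained 3 mM ATP.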

EGFR WT = EGFR WT (Homo sapiens (Human), UniProt P00533); assay: TR-FRET assay for ERBB kinases; type: biochemical; details: geometric mean if measured more than once
Method in brief: as §1

EGFR L858R/T790M/C797S = EGFR L858R/T790M/C797S (Homo sapiens (Human), UniProt P00533, C797S/L858R/T790M); assay: TR-FRET assay for ERBB kinases; type: biochemical; details: geometric mean if measured more than once
Method in brief: as §1

[2] = biological target: EGFR L858R/T790M/C797S triple mutant (H520*) (Homo sapiens (Human), UniProt P00533, C797S/L858R/T790M); assay: EGFR protein degradation assay (Western blot); type: cell-based; details: 72 hours, 300 nM to 10 nM
Method in brief: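 EGFR loss in the triple-mutant line measured by immunoblot: clarified lysates normalised by BCA, run on 4-12% Bis-Tris gels, blotted to PVDF, probed with HRP anti-rabbit secondary. Before lysis, cells were dosed from 1, 0.3, 0.1, 0.03 and 0.01 mM DMSO stocks (not final concentrations) after overnight culture at 37° C.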

[3] = biological target: EGFR L858R/T790M double mutant (H1975) (Homo sapiens (Human), UniProt P00533, L858R/T790M); assay: EGFR protein degradation assay (Western blot); type: cell-based; details: 72 hours, 300 nM to 10 nM
Method in brief: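 Cells carrying the relevant EGFR form were plated at 300,000 cells per well in 6-well plates and left to attach overnight. After washing in ice-cold PBS, cells were lysed in 400 μl lysis buffer with protease inhibitors, scraped, and clarified at 10 000 rpm for 10 minutes. EGFR levels were then assessed by Western blot with tubulin as loading control.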

EGFR Exon20NPG = EGFR Exon20NPG (Homo sapiens (Human), UniProt P00533, INS770NPG); assay: TR-FRET assay for ERBB kinases; type: biochemical; details: geometric mean if measured more than once
Method in brief: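 Compounds pre-incubated 10 min with kinase in HEPES pH 7.5 buffer (MgCl2, DTT, Pluronic), then reaction started with substrate mix (3 mM ATP, 30 µM fluorescein-poly-GluTyr, stock levels) for 10 min at room temperature. EDTA-quenched, detected by Tb-pY20 antibody TR-FRET (520/490 nm emission).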

EGFR Exon20NPG, sequence (P00533 other isoform, or with tags, fused parts or gaps del 1-694/ins NPG behind 770 limits assumed): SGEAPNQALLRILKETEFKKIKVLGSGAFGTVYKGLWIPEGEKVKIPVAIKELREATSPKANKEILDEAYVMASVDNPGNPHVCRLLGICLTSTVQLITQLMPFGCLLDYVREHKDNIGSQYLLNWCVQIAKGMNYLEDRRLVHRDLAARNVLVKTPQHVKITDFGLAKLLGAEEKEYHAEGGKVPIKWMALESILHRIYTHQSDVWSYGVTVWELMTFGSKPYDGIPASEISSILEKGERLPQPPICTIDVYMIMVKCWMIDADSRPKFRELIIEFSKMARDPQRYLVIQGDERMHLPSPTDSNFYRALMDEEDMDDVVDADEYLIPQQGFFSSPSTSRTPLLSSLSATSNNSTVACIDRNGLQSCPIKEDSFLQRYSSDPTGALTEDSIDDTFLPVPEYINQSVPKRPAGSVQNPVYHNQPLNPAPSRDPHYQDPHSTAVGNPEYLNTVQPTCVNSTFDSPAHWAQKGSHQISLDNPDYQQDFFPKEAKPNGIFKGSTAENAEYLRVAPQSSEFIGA
EGFR L858R/T790M/C797S, sequence (P00533 25-1210 T790M/C797S/L858R): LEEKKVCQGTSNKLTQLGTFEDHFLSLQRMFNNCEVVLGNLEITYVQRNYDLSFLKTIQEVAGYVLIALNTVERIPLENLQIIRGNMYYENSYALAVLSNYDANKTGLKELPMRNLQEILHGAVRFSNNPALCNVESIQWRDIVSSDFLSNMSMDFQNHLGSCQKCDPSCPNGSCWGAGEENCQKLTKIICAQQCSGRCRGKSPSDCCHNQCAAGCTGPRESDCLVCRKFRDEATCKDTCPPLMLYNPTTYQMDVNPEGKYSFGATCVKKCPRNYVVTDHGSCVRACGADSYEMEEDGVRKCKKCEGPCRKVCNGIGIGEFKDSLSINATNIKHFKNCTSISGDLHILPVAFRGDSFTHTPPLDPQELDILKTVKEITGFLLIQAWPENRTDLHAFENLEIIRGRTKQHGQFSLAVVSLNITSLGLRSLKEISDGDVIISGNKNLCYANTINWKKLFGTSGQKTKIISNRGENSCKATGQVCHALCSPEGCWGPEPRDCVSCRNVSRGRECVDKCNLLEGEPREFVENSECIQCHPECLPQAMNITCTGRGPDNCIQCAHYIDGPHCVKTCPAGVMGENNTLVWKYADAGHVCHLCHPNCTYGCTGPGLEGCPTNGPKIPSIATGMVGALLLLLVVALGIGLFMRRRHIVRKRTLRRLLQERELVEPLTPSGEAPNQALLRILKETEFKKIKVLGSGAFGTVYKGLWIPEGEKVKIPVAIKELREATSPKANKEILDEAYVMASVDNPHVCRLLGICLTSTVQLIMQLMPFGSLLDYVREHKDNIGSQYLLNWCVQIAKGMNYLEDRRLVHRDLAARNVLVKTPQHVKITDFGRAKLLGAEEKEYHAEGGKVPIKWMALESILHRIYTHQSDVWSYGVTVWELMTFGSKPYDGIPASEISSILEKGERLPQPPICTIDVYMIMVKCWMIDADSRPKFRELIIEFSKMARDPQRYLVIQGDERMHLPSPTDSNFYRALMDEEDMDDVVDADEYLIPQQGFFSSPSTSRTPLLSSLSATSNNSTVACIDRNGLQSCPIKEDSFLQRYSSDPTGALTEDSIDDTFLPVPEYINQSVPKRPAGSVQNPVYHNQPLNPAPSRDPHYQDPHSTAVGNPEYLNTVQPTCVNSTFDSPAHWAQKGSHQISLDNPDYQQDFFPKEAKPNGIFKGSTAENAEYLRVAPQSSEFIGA
EGFR L858R/T790M/C797S triple mutant (H520*), sequence (P00533 25-1210 T790M/C797S/L858R): as above
EGFR L858R/T790M, sequence (P00533 25-1210 T790M/L858R): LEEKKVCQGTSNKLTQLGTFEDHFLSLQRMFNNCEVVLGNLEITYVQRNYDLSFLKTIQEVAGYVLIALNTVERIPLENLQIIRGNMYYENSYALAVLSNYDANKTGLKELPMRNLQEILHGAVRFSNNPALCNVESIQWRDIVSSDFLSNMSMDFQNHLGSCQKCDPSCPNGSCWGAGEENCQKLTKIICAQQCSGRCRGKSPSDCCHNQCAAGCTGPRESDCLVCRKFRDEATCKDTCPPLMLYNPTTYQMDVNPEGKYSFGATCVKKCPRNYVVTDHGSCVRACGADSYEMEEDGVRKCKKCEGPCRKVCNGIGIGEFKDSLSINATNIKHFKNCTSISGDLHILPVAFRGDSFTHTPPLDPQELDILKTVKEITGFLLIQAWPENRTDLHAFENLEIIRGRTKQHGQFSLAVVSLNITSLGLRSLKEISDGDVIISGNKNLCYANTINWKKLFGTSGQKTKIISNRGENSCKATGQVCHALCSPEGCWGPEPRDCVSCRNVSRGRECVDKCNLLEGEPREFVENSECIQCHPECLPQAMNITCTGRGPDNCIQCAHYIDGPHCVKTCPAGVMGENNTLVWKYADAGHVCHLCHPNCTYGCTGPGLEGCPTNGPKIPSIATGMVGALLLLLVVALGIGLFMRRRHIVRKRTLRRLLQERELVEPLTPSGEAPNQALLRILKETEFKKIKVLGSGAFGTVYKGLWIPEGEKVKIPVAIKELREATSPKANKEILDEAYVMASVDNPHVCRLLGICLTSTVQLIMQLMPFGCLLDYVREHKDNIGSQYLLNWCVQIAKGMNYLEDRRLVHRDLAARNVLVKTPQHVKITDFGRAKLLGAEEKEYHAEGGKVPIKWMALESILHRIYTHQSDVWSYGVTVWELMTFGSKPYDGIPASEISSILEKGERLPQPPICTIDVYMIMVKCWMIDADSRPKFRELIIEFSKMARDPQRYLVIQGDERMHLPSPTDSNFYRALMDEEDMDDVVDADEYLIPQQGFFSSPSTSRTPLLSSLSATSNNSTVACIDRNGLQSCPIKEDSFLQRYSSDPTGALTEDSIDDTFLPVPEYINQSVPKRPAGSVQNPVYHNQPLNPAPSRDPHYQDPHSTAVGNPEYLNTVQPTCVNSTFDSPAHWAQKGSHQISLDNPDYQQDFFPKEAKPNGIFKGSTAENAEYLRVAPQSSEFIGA

`O=C1CCC(N2C(=O)c3ccc(OCCOCCN4CCN(Cc5ccc(-c6cc7c(NCc8ccccc8Cl)ncnc7[nH]6)cc5)CC4)cc3C2=O)C(=O)N1` (stereo not drawn) [Example 102, 5-(2-(2-(4-(4-(4-((2-chlorobenzyl)amino)-7H-pyrrolo[2,3-d]pyrimidin-6-yl)benzyl)piperazin-1-yl)ethoxy)ethoxy)-2-(2,6-dioxopiperidin-3-yl)isoindoline-1,3-dione] was tested, and the “EGFR protein remaining, EGFR-wt” value [1] was “C (>80% EGFR protein remaining after 72 hours of incubation with the test compound at a concentration of 300 nM)” and the “EGFR protein remaining, EGFR Exon 20 ASV” value (EGFR Exon 20 ASV (HeLa*)) was “C (>80% EGFR protein remaining after 72 hours of incubation with the test compound at a concentration of 300 nM)”.
With `Cc1ncsc1-c1ccc(CNC(=O)[C@@H]2C[C@@H](O)CN2C(=O)[C@@H](NC(=O)CO[C@H]2C[C@H](Oc3ccc(N4CCN(CCOCc5nc6cnc(Nc7ccnc(-c8cnn(S(=O)(=O)C9CC9)c8)n7)cc6n5C(C)C)CC4)cc3)C2)C(C)(C)C)cc1` [compound 304] the “EGFR protein remaining, EGFR-wt” value [1] was “C (>80% EGFR protein remaining after 72 hours of incubation with the test compound at a concentration of 300 nM)”, the IC50 (EGFR L858R/T790M) was 0.092 µM and the IC50 (EGFR WT) was greater than 30 µM. For the same molecule, the IC50 (EGFR L858R/T790M/C797S) was 0.017 µM and the “EGFR protein remaining, EGFR L858R/T790M/C797S triple mutant” value [2] was “A (≤50% EGFR protein remaining after 72 hours of incubation with the test compound at a concentration between 300 nM and 10 nM)”.
For `Cc1ncsc1-c1ccc(CNC(=O)[C@H]2C[C@H](O)CN2C(=O)[C@@H](NC(=O)COCCOCCOc2ccc(-c3ccc4ncnc(Nc5ccc(OCc6cccc(F)c6)c(Cl)c5)c4c3)cc2)C(C)(C)C)cc1` [Example 98, (2R,4S)-1-((S)-2-(2-(2-(2-(4-(4-((3-Chloro-4-((3-fluorobenzyl)oxy)phenyl)amino)quinazolin-6-yl)phenoxy)ethoxy)ethoxy)acetamido)-3,3-dimethylbutanoyl)-4-hydroxy-N-(4-(4-methylthiazol-5-yl)benzyl)pyrrolidine-2-carboxamide], the “EGFR protein remaining, EGFR-wt” value [1] was “C (>80% EGFR protein remaining after 72 hours of incubation with the test compound at a concentration of 300 nM)”.
In the case of `Cc1ncsc1-c1ccc(CNC(=O)[C@@H]2C[C@@H](O)CN2C(=O)[C@@H](NC(=O)COCCOCCOCCOc2ccc(-c3ccc4ncnc(Nc5ccc(OCc6cccc(F)c6)c(Cl)c5)c4c3)cc2)C(C)(C)C)cc1` [Example 99, (2S,4R)-1-((S)-2-(tert-Butyl)-14-(4-(4-((3-chloro-4-((3-fluorobenzyl)oxy)phenyl)amino)quinazolin-6-yl)phenoxy)-4-oxo-6,9,12-trioxa-3-azatetradecanoyl)-4-hydroxy-N-(4-(4-methylthiazol-5-yl)benzyl)pyrrolidine-2-carboxamide], the “EGFR protein remaining, EGFR-wt” value [1] is reported as “A (≤50% EGFR protein remaining after 72 hours of incubation with the test compound at a concentration between 300 nM and 10 nM)”.
In the case of `Cc1ncsc1-c1ccc(CNC(=O)[C@@H]2C[C@@H](O)CN2C(=O)[C@@H](NC(=O)COCCOCCOCCOc2ccc(-c3cc4c(NCc5ccccc5Cl)ncnc4[nH]3)cc2)C(C)(C)C)cc1` [Example 14, (2S,4R)-1-((S)-2-(tert-butyl)-14-(4-(4-((2-chlorobenzyl)amino)-7H-pyrrolo[2,3-d]pyrimidin-6-yl)phenoxy)-4-oxo-6,9,12-trioxa-3-azatetradecanoyl)-4-hydroxy-N-(4-(4-methylthiazol-5-yl)benzyl)pyrrolidine-2-carboxamide], the “EGFR protein remaining, EGFR-wt” value [1] is reported as “C (>80% EGFR protein remaining after 72 hours of incubation with the test compound at a concentration of 300 nM)” and the “EGFR protein remaining, EGFR Exon 20 ASV” value (EGFR Exon 20 ASV (HeLa*)) is reported as “C (>80% EGFR protein remaining after 72 hours of incubation with the test compound at a concentration of 300 nM)”.
With `Cc1ncsc1-c1ccc(CNC(=O)[C@@H]2C[C@@H](O)CN2C(=O)[C@H](C(C)C)N2Cc3ccccc3C2=O)c(OCCOCCOCCOCCOCCOCC#Cc2cccc3c2C(=O)N([C@@H](C(=O)Nc2nccs2)c2cc(F)ccc2O)C3)c1` [compound 260] the “EGFR protein remaining, EGFR L858R/T790M double mutant” value [3] was “C (>80% EGFR protein remaining after 72 hours of incubation with the test compound at a concentration of 300 nM)”, the IC50 (EGFR L858R/T790M) was 20 µM and the IC50 (EGFR WT) was 3.2 µM. For the same molecule, the IC50 (EGFR L858R/T790M/C797S) was 0.56 µM, the “EGFR protein remaining, EGFR L858R/T790M/C797S triple mutant” value [2] was “C (>80% EGFR protein remaining after 72 hours of incubation with the test compound at a concentration of 300 nM)” and the IC50 (EGFR Exon20NPG) was greater than 30 µM.
`Cc1ncsc1-c1ccc(CNC(=O)[C@@H]2C[C@@H](O)CN2C(=O)[C@@H](NC(=O)COCCOCCOCCOCCOCc2ccc(-c3ccc4ncnc(Nc5ccc(OCc6cccc(F)c6)c(Cl)c5)c4c3)o2)C(C)(C)C)cc1` [Example 320, (2S,4R)-1-((S)-18-(tert-butyl)-1-(5-(4-((3-chloro-4-((3-fluorobenzyl)oxy)phenyl)amino)quinazolin-6-yl)furan-2-yl)-16-oxo-2,5,8,11,14-pentaoxa-17-azanonadecan-19-oyl)-4-hydroxy-N-(4-(4-methylthiazol-5-yl)benzyl)pyrrolidine-2-carboxamide] was tested, and the “EGFR protein remaining, EGFR-wt” value [1] was “A (≤50% EGFR protein remaining after 72 hours of incubation with the test compound at a concentration between 300 nM and 10 nM)”.
With `Cc1ncsc1-c1ccc([C@H](C)NC(=O)[C@H]2C[C@H](O)CN2C(=O)[C@@H](NC(=O)COCCOCCOCCOCCOCCOCC#Cc2cccc3c2C(=O)N([C@@H](C(=O)Nc2nccs2)c2cc(F)ccc2O)C3)C(C)(C)C)cc1` [compound 275] the “EGFR protein remaining, EGFR L858R/T790M double mutant” value [3] was “C (>80% EGFR protein remaining after 72 hours of incubation with the test compound at a concentration of 300 nM)”, the “EGFR protein remaining, EGFR-wt” value [1] was “C (>80% EGFR protein remaining after 72 hours of incubation with the test compound at a concentration of 300 nM)” and the IC50 (EGFR L858R/T790M) was 0.88 µM. For the same molecule, the IC50 (EGFR WT) was 0.66 µM, the IC50 (EGFR L858R/T790M/C797S) was 0.069 µM and the “EGFR protein remaining, EGFR L858R/T790M/C797S triple mutant” value [2] was “B (≤80% and >50% EGFR protein remaining after 72 hours of incubation with the test compound at a concentration between 300 nM and 10 nM)”. For the same molecule, the IC50 (EGFR Exon20NPG) was 9.1 µM.
For `Cc1ncsc1-c1ccc(CNC(=O)[C@@H]2C[C@H](O)CN2C(=O)[C@@H](NC(=O)COCCOCCOCCOc2ccc(-c3ccc4ncnc(Nc5ccc(OCc6cccc(F)c6)c(Cl)c5)c4c3)cc2)C(C)(C)C)cc1` [Example 100, (2S,4S)-1-((S)-2-(tert-Butyl)-14-(4-(4-((3-chloro-4-((3-fluorobenzyl)oxy)phenyl)amino)quinazolin-6-yl)phenoxy)-4-oxo-6,9,12-trioxa-3-azatetradecanoyl)-4-hydroxy-N-(4-(4-methylthiazol-5-yl)benzyl)pyrrolidine-2-carboxamide], the “EGFR protein remaining, EGFR-wt” value [1] was “C (>80% EGFR protein remaining after 72 hours of incubation with the test compound at a concentration of 300 nM)”.
For `O=C1CCC(N2C(=O)c3cccc(NCCOCCOCCOCCOCCOCC#Cc4cccc5c4C(=O)N([C@@H](C(=O)Nc4nccs4)c4cc(F)ccc4O)C5)c3C2=O)C(=O)N1` (stereo partly drawn) [compound 267], the “EGFR protein remaining, EGFR L858R/T790M double mutant” value [3] was “C (>80% EGFR protein remaining after 72 hours of incubation with the test compound at a concentration of 300 nM)”, the IC50 (EGFR L858R/T790M) was 30 µM and the IC50 (EGFR WT) was 30 µM. For the same molecule, the IC50 (EGFR L858R/T790M/C797S) was 1.4 µM, the “EGFR protein remaining, EGFR L858R/T790M/C797S triple mutant” value [2] was “C (>80% EGFR protein remaining after 72 hours of incubation with the test compound at a concentration of 300 nM)” and the IC50 (EGFR Exon20NPG) was 30 µM.
`COc1cc2c(Oc3ccc(N(C(=O)C4(C(N)=O)CC4)c4ccc(F)cc4)cc3F)ccnc2cc1OCCCOCCCOCCC(=O)N[C@H](C(=O)N1C[C@@H](O)C[C@H]1C(=O)NCc1ccc(-c2scnc2C)cc1)C(C)(C)C` [Example 351, N-(3-Fluoro-4-((7-(3-(3-(3-(((S)-1-((2S,4S)-4-hydroxy-2-((4-(4-methylthiazol-5-yl)benzyl)carbamoyl)-pyrrolidin-1-yl)-3,3-dimethyl-1-oxobutan-2-yl)amino)-3-oxopropoxy)propoxy)propoxy)-6-methoxyquinolin-4-yl)oxy)phenyl)-N-(4-fluorophenyl)cyclopropane-1,1-dicarboxamide] was tested, and the “EGFR protein remaining, EGFR-wt” value [1] was “C (>80% EGFR protein remaining after 72 hours of incubation with the test compound at a concentration of 300 nM)”.
